Measured values from publication PMC3288053 (PLoS ONE, 2012).

Tests used:
PPARγ:RXRα = target: T1, PPARγ:RXRα (Homo sapiens, UniProt P19793+P37231); experiment: Transient transfection luciferase assay in HEK293 cells (PPRE); format: cell-based; conditions: HEK293, 24 h
T1 construct: expressed in transfected cells; host or cells: HEK293
Protocol: HEK293 cells are transiently transfected by Lipo2000 respectively with RXRα, PPARγ, FXR, and LXRα plasmids plus pGL3-RXRE luciferase vector and renilla luciferase vector for 5 hours. Cells are then incubated with indicated concentrations of compounds for another 24 h and finally lysed. Luciferase activities are measured using Dual Luciferase Assay System kit. Rut dose-dependently activates (a) RXRα:RXRα and (b) PPARγ:RXRα activities. Rut has no effects on (c) FXR: RXRα and (d) LXRα:RXRα activities. Data are presented as means ± s.e.m (*P<0.05, **P<0.01) from three independent experiments.
HEK293 cells are transfected with luciferase reporter plus Renilla luciferase vector and other plasmids if needed for 5 hours, and cells are then incubated with indicated concentrations of compounds for another 24 h. Finally cells are lysed and luciferase activities are measured using Dual Luciferase Assay System kit. The results are presented as the fold activation relative to untreated cells after normalization with Renilla luciferase values. Each experiment is repeated at least twice, with each sample analyzed in triplicates.

SRC1_613–773 = target: T2, SRC1_613–773 (Homo sapiens, UniProt Q15788); experiment: SPR (Biacore) binding assay, control; conditions: SPR control experiment
T2 construct: The plasmid pET15b-SRC1_613–773 is constructed with NdeI-BamHI sites; His-tag (N); made in house; host or cells: E. coli BL21 (DE3)
T2 sequence (Q15788 613-773): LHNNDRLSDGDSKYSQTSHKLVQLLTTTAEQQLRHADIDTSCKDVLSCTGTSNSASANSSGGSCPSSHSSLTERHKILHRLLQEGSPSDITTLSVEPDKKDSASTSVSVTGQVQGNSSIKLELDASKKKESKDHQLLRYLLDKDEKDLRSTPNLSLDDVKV
Protocol: Binding affinities of Rut towards proteins are analyzed using SPR technology based Biacore 3000 instrument (GE Healthcare). In the assay, proteins are immobilized to CM5 chips using a standard amine-coupling procedure (Biacore manual). The proteins to be covalently bound to the chips are diluted in 10 mM sodium acetate buffer (pH4.5) to a final concentration of 0.10 mg/ml. Before experiments, baseline is equilibrated with a continuous flow of running buffer (10 mM HEPES, 150 mM NaCl, 3 mM EDTA, and 0.005% (v/v) surfactant P20, pH7.4) for 2 hours. Subsequently, Rut with a gradient of concentrations is injected to the channels at a flow rate of 20 µL/min for 60 seconds, followed by disassociation for 120 seconds. The 1∶1 Langmuir binding fitting model in BIAevaluation software version 3.1 (Biacore) is used to determine the equilibrium dissociation constants (K Ds) of compounds. For SRC1 recruitment assay, purified SRC1_613–773 is immobilized to a CM5 chip. Different concentrations of PPARγ-LBD or RXRα-LBD are injected to the channel at a flow rate of 20 µL/min for 60 s, followed by disassociation for 120 s. To further detect the effects of Rut on PPARγ-LBD/SRC1 or RXRα-LBD/SRC1 interactions, 1 µM PPARγ-LBD or RXRα-LBD is incubated with Rut (16.8–100 µM) for 1 hour, and then injected onto the chip.

PTPα = target: T3, PTPα (Homo sapiens, UniProt P18433); experiment: PTP enzyme inhibition assay (pNPP substrate); format: biochemical; conditions: read-out: IC50 PTPα; PTPs 0.3 µM, pNPP 5 mM, 25°C; NI: No inhibition at 100 µM
T3 construct: pGEX2T-PTPα182–803; GST (N); made in house; host or cells: E. coli BL21 (DE3)
Protocol: (§1) The enzymatic activities of the recombinant PTPs are measured at 25°C using pNPP as substrate. The initial velocities of enzymatic reactions are determined by continuously measuring the absorbance at 405 nm every 15 s using a microplate spectrophotometer (Bio-Rad). […] To determine the inhibition type, each concentration of Rut (0, 50 and 75 µM) is incubated with PTP1B (0.3 µM) in reaction buffer (50 mM HEPES, pH7.0, 1 mM EDTA, and 100 mM NaCl) for 10 min and the reactions are initiated by different concentrations of pNPP (0.5–10 mM). The inhibition type is determined using double-reciprocal plots. In determination of the selectivity of Rut against PTPs, the result is referred as no inhibition when 100 µM Rut inhibits no enzyme activity. The same reaction systems are designed for all PTPs including PTP1B.

PTP1B = target: T4, PTP1B (Homo sapiens, UniProt P18031); experiment: PTP enzyme inhibition assay (pNPP substrate); format: biochemical
T4 construct: pGEX4T-1-PTP1B1–321; GST (N); made in house; host or cells: E. coli BL21 (DE3)
T4 sequence (P18031 1-321): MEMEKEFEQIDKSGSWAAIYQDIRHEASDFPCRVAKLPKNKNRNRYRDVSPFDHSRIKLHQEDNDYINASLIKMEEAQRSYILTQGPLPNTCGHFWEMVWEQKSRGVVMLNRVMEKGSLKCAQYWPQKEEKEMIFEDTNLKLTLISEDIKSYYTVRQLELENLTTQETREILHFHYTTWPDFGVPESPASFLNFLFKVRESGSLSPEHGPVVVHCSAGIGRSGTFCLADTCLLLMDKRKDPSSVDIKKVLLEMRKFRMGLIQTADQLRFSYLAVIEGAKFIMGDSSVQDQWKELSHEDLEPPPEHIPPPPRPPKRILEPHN
Protocol: as §1

CD45 = target: T5, CD45 (Homo sapiens, UniProt P08575); experiment: PTP enzyme inhibition assay (pNPP substrate); format: biochemical; conditions: PTPs 0.3 µM, pNPP 5 mM, 25°C; NI: No inhibition at 100 µM
T5 construct: pGEX2T-CD45_560–1256; GST (N); made in house; host or cells: E. coli BL21 (DE3)
T5 sequence (P08575 610-1306 limits assumed): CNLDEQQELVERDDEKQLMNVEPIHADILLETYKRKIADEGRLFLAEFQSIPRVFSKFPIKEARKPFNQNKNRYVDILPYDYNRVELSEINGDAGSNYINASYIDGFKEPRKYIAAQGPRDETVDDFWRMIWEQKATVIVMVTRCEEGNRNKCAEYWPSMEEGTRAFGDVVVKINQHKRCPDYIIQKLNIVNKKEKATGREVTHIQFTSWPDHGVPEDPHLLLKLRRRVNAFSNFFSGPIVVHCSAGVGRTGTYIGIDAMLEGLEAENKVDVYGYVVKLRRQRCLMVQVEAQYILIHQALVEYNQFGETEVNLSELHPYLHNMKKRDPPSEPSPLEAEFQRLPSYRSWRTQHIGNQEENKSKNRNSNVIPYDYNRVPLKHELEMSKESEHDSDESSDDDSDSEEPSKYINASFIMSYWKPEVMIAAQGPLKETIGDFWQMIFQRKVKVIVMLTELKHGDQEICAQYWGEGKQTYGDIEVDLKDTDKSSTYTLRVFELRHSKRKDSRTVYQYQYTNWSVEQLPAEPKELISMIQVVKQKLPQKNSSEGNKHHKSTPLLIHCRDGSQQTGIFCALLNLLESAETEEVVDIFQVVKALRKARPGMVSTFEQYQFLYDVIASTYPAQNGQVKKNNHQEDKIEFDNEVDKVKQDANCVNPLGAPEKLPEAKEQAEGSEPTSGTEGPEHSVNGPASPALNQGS
Protocol: as §1

T1 sequence (P37231 whole entry): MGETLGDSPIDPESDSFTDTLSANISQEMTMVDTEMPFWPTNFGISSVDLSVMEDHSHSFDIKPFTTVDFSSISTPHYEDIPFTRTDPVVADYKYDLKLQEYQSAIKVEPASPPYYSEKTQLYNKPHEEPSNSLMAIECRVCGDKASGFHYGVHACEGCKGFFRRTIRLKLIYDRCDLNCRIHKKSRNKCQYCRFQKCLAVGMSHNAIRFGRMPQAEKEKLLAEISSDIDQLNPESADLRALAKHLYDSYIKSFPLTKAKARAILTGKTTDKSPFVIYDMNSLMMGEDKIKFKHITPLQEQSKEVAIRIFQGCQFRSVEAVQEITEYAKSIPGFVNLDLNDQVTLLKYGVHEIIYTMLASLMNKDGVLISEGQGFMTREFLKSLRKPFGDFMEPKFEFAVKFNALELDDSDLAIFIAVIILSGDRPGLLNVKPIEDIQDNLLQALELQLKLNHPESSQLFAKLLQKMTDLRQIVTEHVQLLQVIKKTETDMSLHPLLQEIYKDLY
T1 sequence (P19793 whole entry): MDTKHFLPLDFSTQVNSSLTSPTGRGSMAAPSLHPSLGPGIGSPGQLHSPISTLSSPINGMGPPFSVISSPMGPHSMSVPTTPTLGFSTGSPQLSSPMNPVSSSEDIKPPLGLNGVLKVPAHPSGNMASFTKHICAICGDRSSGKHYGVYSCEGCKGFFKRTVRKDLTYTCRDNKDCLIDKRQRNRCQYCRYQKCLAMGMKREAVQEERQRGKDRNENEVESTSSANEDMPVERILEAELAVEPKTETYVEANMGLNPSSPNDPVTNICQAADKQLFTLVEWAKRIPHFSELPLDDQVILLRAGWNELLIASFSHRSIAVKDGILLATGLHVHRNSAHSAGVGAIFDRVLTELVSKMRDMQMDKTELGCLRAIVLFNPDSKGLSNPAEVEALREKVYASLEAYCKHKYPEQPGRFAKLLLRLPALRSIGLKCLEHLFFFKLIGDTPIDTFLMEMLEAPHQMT

In the case of `C=CC(C)(C)c1cc2cc3c(cc2oc1=O)O[C@H](C(C)(C)OC(C)=O)C3` [(+)-Rutamarin], the “activity of PPAR-response element (PPRE)” value (PPARγ:RXRα) is reported as “dose-dependently enhance”, the “binding to SRC1” value (SRC1_613–773) is reported as “does not bind” and the IC50 (PTPα) is reported as greater than 100 µM. For the same molecule, the IC50 (PTP1B; PTPs 0.3 µM, pNPP 5 mM, 25°C, NI: No inhibition at 100 µM) was 6.4 µM, the “inhibition type (Lineweaver-Burk, double-reciprocal plots)” value (PTP1B; Rut 0, 50 and 75 µM, pNPP 0.5–10 mM) was “competitive inhibitor” and the IC50 (CD45) was greater than 100 µM.
